Laboratory results reported in article PMC12396409, “Screening and hit evaluation of a microbial metabolite library against the pathogenic Plasmodium falciparum and Toxoplasma gondii parasites” (International Journal for Parasitology: Drugs and Drug …, 2025).
Like-named read-outs stand apart in the source and are kept apart here. *1 amine or outer side, *2 acyl side, *3 side chain or, on linkers, in order; H or OH if unused. Where a SMILES comes first, the peptide text is derived from it. Bridges are numbered along the chain shown (N, C = ends). Roman numbers before positions name the chains, in order. [ ]: non-standard residue; d: D form. Actinocin(9to1) = Cc1c2oc3c(C)ccc(C(=O)[*:1])c3nc-2c(C(=O)[*:2])c(N)c1=O; NMeV = CN[C@H](C(=O)O)C(C)C; Sar = CNCC(=O)O

Tests used:
[1] = test system: P. falciparum 3D7 parasites; assay: P. falciparum growth inhibition assay, 2-cycle (120 h treatment), delayed-death screen and dose-response; type: cell-based, Plasmodium falciparum; settings: for activity at 2 µg/mL: Plasmodium falciparum
[2] = test system: T. gondii RH strain (RH-Tub-eYFP) tachyzoites; assay: microbe, parasite or virus in culture; type: cell-based, Toxoplasma gondii
[3] = test system: P. falciparum 3D7 parasites; assay: P. falciparum growth inhibition assay, 1-cycle (72 h treatment), SYBR DNA staining (library screen at 2 μg/mL and dose-response); type: cell-based, Plasmodium falciparum; settings: for activity at 2 µg/mL: Plasmodium falciparum
[4] = P. falciparum 3D7, 120 h, parasite screen at 2 μg/mL, % growth, replicate 1
[5] = P. falciparum 3D7, 120 h, parasite screen at 2 μg/mL, % growth, replicate 2
[6] = T. gondii, 72 h, parasite screen at 2 μg/mL, % growth, replicate 1
[7] = T. gondii, 72 h, parasite screen at 2 μg/mL, % growth, replicate 2
[8] = P. falciparum 3D7, 72 h, parasite screen at 2 μg/mL, % growth, replicate 1
[9] = P. falciparum 3D7, 72 h, parasite screen at 2 μg/mL, % growth, replicate 2
[10] = library screen at 2 μg/mL, 72 h, % growth, replicate 1
[11] = library screen at 2 μg/mL, 72 h, % growth, replicate 2

Structure (SMILES): Cc1c2oc3c(C)ccc(C(=O)N[C@@H]4C(=O)N[C@H](C(C)C)C(=O)N5CCC[C@H]5C(=O)N(C)CC(=O)N(C)[C@@H](C(C)C)C(=O)O[C@@H]4C)c3nc-2c(C(=O)N[C@@H]2C(=O)N[C@H](C(C)C)C(=O)N3CCC[C@H]3C(=O)N(C)CC(=O)N(C)[C@@H](C(C)C)C(=O)O[C@@H]2C)c(N)c1=O [Actinomycin D] (I: T[dV]P[Sar][NMeV] / II: T[dV]P[Sar][NMeV]; ester I:1-I:C, II:1-II:C; linker I:N-II:N via Actinocin(9to1))
- activity at 2 µg/mL ([1]; 3D7, library screen at 2 μg/mL, 120 h, % growth, replicate 1, read-out: Pf_120h_%Growth_Rep1): 7.65%
- activity at 2 µg/mL ([1]; 3D7, library screen at 2 μg/mL, 120 h, % growth, replicate 2, read-out: Pf_120h_%Growth_Rep2): -5.71%
- percent parasite growth at 2 µg/mL ([2]; Toxoplasma gondii; library screen at 2 μg/mL, 72 h, % growth, replicate 1; read-out: Tg_72h_%Growth_Rep1): 2.02%
- percent parasite growth at 2 µg/mL ([2]; Toxoplasma gondii; library screen at 2 μg/mL, 72 h, % growth, replicate 2; read-out: Tg_72h_%Growth_Rep2): 0.47%
- activity at 2 µg/mL ([3]; 3D7, library screen at 2 μg/mL, 72 h, % growth, replicate 1, read-out: Pf_72h_%Growth_Rep1): 2.91%
- activity at 2 µg/mL ([3]; 3D7, library screen at 2 μg/mL, 72 h, % growth, replicate 2, read-out: Pf_72h_%Growth_Rep2): 5.02%

Structure (SMILES): C[C@@](O)(/C=C/[C@H]1CC=CC(=O)O1)[C@@H](C[C@@H](O)\C=C/C=C\C=C\CO)OP(=O)(O)O [Fostriecin]
- activity at 2 µg/mL ([1]; 3D7, 120 h, library screen at 2 μg/mL, 120 h, % growth, replicate 1, read-out: Pf_120h_%Growth_Rep1): 36.9%
- activity at 2 µg/mL ([1]; 3D7, 120 h, library screen at 2 μg/mL, 120 h, % growth, replicate 2, read-out: Pf_120h_%Growth_Rep2): 56%
- percent parasite growth at 2 µg/mL ([2]; Toxoplasma gondii, 72 h, library screen at 2 μg/mL, 72 h, % growth, replicate 1; read-out: Tg_72h_%Growth_Rep1): 113%
- percent parasite growth at 2 µg/mL ([2]; Toxoplasma gondii, 72 h, library screen at 2 μg/mL, 72 h, % growth, replicate 2; read-out: Tg_72h_%Growth_Rep2): 102%
- activity at 2 µg/mL ([3]; 3D7, 72 h, library screen at 2 μg/mL, 72 h, % growth, replicate 1, read-out: Pf_72h_%Growth_Rep1): 29.1%
- activity at 2 µg/mL ([3]; 3D7, 72 h, library screen at 2 μg/mL, 72 h, % growth, replicate 2, read-out: Pf_72h_%Growth_Rep2): 38.8%

Structure (SMILES): Cc1cc(O)c(C)c(O)c1C(=O)O [BIA-M1661]
- Pf_120h_%Growth_Rep1 [1, 4]: 67.73%
- Pf_120h_%Growth_Rep2 [1, 5]: 68.25%
- Tg_72h_%Growth_Rep1 [2, 6]: 153.94%
- Tg_72h_%Growth_Rep2 [2, 7]: 85.55%
- Pf_72h_%Growth_Rep1 [3, 8]: 76.46%
- Pf_72h_%Growth_Rep2 [3, 9]: 83.29%

Structure (SMILES): C[C@@H]1C[C@H](C)C[C@H](C)[C@@H](O)CC(=O)O[C@H]([C@@H]2CCC[C@H]2C(=O)O)C/C=C/C=C(/C#N)[C@H](O)[C@@H](C)C1 [Borrelidin]
- activity at 2 µg/mL ([1]; 3D7, P. falciparum, 120 h, screen at 2 μg/mL, replicate 1, read-out: Pf_120h_%Growth_Rep1): 4.36%
- activity at 2 µg/mL ([1]; 3D7, P. falciparum, 120 h, screen at 2 μg/mL, replicate 2, read-out: Pf_120h_%Growth_Rep2): 5.57%
- percent parasite growth at 2 µg/mL ([2]; Toxoplasma gondii, 72 h, T. gondii, 72 h, screen at 2 μg/mL, replicate 1; read-out: Tg_72h_%Growth_Rep1): 0.76%
- percent parasite growth at 2 µg/mL ([2]; Toxoplasma gondii, 72 h, T. gondii, 72 h, screen at 2 μg/mL, replicate 2; read-out: Tg_72h_%Growth_Rep2): 1.62%
- activity at 2 µg/mL ([3]; 3D7, P. falciparum, 72 h, screen at 2 μg/mL, replicate 1, read-out: Pf_72h_%Growth_Rep1): 2.87%
- activity at 2 µg/mL ([3]; 3D7, P. falciparum, 72 h, screen at 2 μg/mL, replicate 2, read-out: Pf_72h_%Growth_Rep2): -1.49%

Structure (SMILES): CC1=C[C@H]2O[C@@H]3[C@H](O)C[C@](C)([C@@]2(CO)[C@H](O)C1=O)[C@]31CO1 [Deoxynivalenol]
- Pf_120h_%Growth_Rep1 ([1]; library screen at 2 μg/mL, 120 h, % growth, replicate 1): 19.31%
- Pf_120h_%Growth_Rep2 ([1]; library screen at 2 μg/mL, 120 h, % growth, replicate 2): 5.93%
- Tg_72h_%Growth_Rep1 [2, 10]: -0.04%
- Tg_72h_%Growth_Rep2 [2, 11]: 0.56%
- Pf_72h_%Growth_Rep1 [3, 10]: -0.53%
- Pf_72h_%Growth_Rep2 [3, 11]: -5.17%

Structure (SMILES): CON=C1CC2(CC3CC(CC=C(C)CC(C)C=CC=C4COC5C(O)C(C)=CC(C(=O)O3)C45O)O2)OC(C(C)=CC(C)C)C1C (stereo not drawn) [BIA-M1298]
- Pf_120h_%Growth_Rep1 [1, 4]: -5.10%
- Pf_120h_%Growth_Rep2 [1, 5]: 5.91%
- Tg_72h_%Growth_Rep1 [2, 6]: 102.84%
- Tg_72h_%Growth_Rep2 [2, 7]: 95.78%
- Pf_72h_%Growth_Rep1 [3, 8]: 17.45%
- Pf_72h_%Growth_Rep2 [3, 9]: -0.02%

Structure (SMILES): C=C(C)[C@H](C)CC[C@](C)(O)[C@H]1CC[C@]2(C)[C@@H]1CC[C@@H]1[C@@]3(C)CC[C@H](O)C(C)(C)[C@@H]3CC[C@]12C [Carnaubadiol]
- Pf_120h_%Growth_Rep1 ([1]; P. falciparum, 120 h, screen at 2 μg/mL, replicate 1): 92.23%
- Pf_120h_%Growth_Rep2 ([1]; P. falciparum, 120 h, screen at 2 μg/mL, replicate 2): 87.62%
- Tg_72h_%Growth_Rep1 ([2]; T. gondii, 72 h, screen at 2 μg/mL, replicate 1): 149.01%
- Tg_72h_%Growth_Rep2 ([2]; T. gondii, 72 h, screen at 2 μg/mL, replicate 2): 97.97%
- Pf_72h_%Growth_Rep1 ([3]; P. falciparum, 72 h, screen at 2 μg/mL, replicate 1): 84.27%
- Pf_72h_%Growth_Rep2 ([3]; P. falciparum, 72 h, screen at 2 μg/mL, replicate 2): 81.18%
